Key:
[1] = molecular target: GABA-AT (Sus scrofa, UniProt P80147); test: Substrate activity for GABA-AT; format: biochemical, pig; conditions: for Km: substrate, Hanes-Woolf plots, pH 8.5, room temperature, 16 h
[2] = following chronic administration; cited from earlier work

Sequence of GABA-AT (P80147 29-500): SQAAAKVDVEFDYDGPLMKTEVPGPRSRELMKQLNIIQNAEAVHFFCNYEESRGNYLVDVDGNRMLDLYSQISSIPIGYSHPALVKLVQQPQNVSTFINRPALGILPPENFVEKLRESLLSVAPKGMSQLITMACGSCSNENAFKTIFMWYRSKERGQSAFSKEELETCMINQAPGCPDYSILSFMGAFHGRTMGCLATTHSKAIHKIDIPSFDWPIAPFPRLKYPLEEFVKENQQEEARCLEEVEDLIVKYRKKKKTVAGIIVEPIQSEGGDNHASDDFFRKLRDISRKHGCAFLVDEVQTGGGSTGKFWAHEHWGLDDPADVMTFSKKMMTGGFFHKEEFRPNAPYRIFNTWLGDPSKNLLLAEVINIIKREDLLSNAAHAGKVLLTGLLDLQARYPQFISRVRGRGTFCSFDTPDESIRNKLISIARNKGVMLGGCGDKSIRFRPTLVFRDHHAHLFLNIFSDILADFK

## Cl.NCc1ccc(C(=O)O)s1 [Compound 4b, 5-(Aminomethyl)thiophene-2-carboxylic acid hydrochloride]
[1]
  Km: much higher

## Cl.NCc1ccc(C(=O)O)o1 [Compound 4a, 5-(Aminomethyl)furan-2-carboxylic acid hydrochloride]
[1]; substrate efficiency
  kcat/Km: highest kcat/Km value

## Cl.NCc1coc(C(=O)O)c1 [Compound 5a, 4-(Aminomethyl)furan-2-carboxylic acid hydrochloride]
[1]; relative to GABA
  Km, fold lower than that of GABA: approximately 4 fold

## Cl.NCc1cscc1C(=O)O [Compound 6b, 4-(Aminomethyl)thiophene-3-carboxylic acid hydrochloride]
[1]
  substrate activity (transamination): Transamination was observed
  Km: > 10 mM

## Cl.[2H]C([2H])(N)c1coc(C(=O)O)c1 [[D2]-5a]
[1]; [D2]-5a evaluated alongside unlabeled 5a
  ^Hk/^Dk for substrate turnover (kinetic isotope effect): 1.22 ± 0.07

## C=CC(N)CCC(=O)O (centres unmarked) [Compound 1, 4-aminohex-5-enoic acid]
[2]
  patients exhibiting irreversible abnormalities in peripherial vision: 25–50%

## Cl.NCc1ccc(C(=O)O)[nH]1 [Compound 4c]
[1]
  Km: much higher

— paper PMC3448830 (Bioorganic & medicinal chemistry, 2012)
